According to publication PMC4788259 (PLoS Neglected Tropical Diseases, 2016):

system: E. multilocularis metacestodes; assay: PGI assay: phosphoglucose isomerase release from damaged metacestodes; assay type: cell-based, Echinococcus multilocularis; conditions: 10 μM, 5 days, single wells, relative to DB1127 (10 μM)
Procedure, shortened: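 E. multilocularis metacestode vesicles (strain H95, grown in BALB/c mice, 2–4 mm diameter) were exposed in vitro to compounds for 5 days. Damage was read as phosphoglucose isomerase released into the medium. Initial screening used 10 μM in single wells, with 0.1% DMSO as negative control. EC50 values were derived from this read-out.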

Row | SMILES | PGI (% of DB1127 at 10 uM) [%]
1 | COc1cc2c(cc1OC)C1=NNC(=O)C1=NC(C)(C)C2 [MMV084940] | -19.88
2 | CN1CCN(c2nc(Nc3ccc(O)cc3)nc3ccccc23)CC1.Cl [MMV000986] | -4.90
3 | COc1ccc(CCNC(=O)c2cc(S(=O)(=O)N3CC(C)CC(C)C3)ccc2Sc2ccc(F)cc2)cc1OC (centres unmarked) [MMV007557] | 14.98
4 | CN(C)CCNc1cc(-c2ccccc2)nc2ccccc12 [MMV006704] | -13.50
5 | N=c1c2ccccc2nnn1-c1cccc(C(F)(F)F)c1 [MMV665923] | 18.29
6 | Cc1ccc(C)c(Cn2c(N3CCC(C(=O)NCc4cccs4)CC3)nc3ccccc32)c1 [MMV019741] | -17.48
7 | COc1ccc(C2C(C(=O)Nc3cccc(OC)c3)c3ccccc3C(=O)N2C2CCCCC2)cc1 (centres unmarked) [MMV008455] | -12.94
8 | CC1CCCCN1CCCNC(=O)c1ccc2c(c1)sc1nc(-c3ccc(F)cc3)cn12 (centres unmarked) [MMV000634] | -120.82
9 | COc1ccc(CCN2CCC(CN(C)Cc3cnn(-c4ccccc4)c3)CC2)cc1 [MMV666069] | -33.62
10 | CCOc1ccc(N2C(N)=NC(N)=NC2(C)C)cc1.Cl [MMV667486] | -3.47
11 | CC1(c2ccccc2)Nc2ccccc2-c2nc3ccccc3n21 (centres unmarked) [MMV396715] | -22.40
12 | CN(C)c1ccc(C=Cc2nc(=O)c3ccccc3o2)cc1 [MMV006309] | 24.63
13 | COc1cc(OC)cc(N2C(=O)N(Cc3ccc(C(C)(C)C)cc3)c3ccccc3S2(=O)=O)c1 [MMV008173] | -29.78
14 | OCCNc1nc(Nc2ccc(Cl)c(Cl)c2)nc2ccccc12 [MMV001041] | 6.70
15 | CN1c2ccccc2N(C)C1c1ccc2c(c1)OCO2 [MMV666009] | -36.57
16 | CCN1CCN(Cc2ccc(NC(=O)c3cc4ccc5cccnc5c4[nH]3)cc2)CC1 [MMV020548] | -26.47
17 | CCc1c(C)c(=N)c2ccccc2n1C.I [MMV006278] | -42.72
18 | CN(C)CCCNCc1ccc(-c2ccc(F)c(Cl)c2)o1.Cl [MMV020505] | -8.77
19 | OC(CNCC1CCCO1)Cn1c2ccc(Cl)cc2c2cc(Cl)ccc21 (centres unmarked) [MMV396736] | 50.77
20 | COc1cccc(O)c1CN1CCC2(CCCN(Cc3ccc(F)cc3)C2)C1 (centres unmarked) [MMV666061] | -20.69
21 | CC(C)(C)CC(C)(C)NCC(O)COc1ccc(Cl)cc1Cl (centres unmarked) [MMV396794] | 97.35
22 | CCOC(=O)C1=C(c2ccccc2)N=c2sc(=Cc3cc(C)n(-c4ccc(F)cc4)c3C)c(=O)n2C1c1cccc(OC)c1OC (centres unmarked) [MMV666601] | -52.06
23 | Cc1sc(NC(=O)c2ccco2)c(C(c2cccnc2)N2CCC(Cc3ccccc3)CC2)c1C (centres unmarked) [MMV396663] | -1.97
24 | CCC(c1ccccc1)c1nn2c(-c3cccs3)nnc2s1 (centres unmarked) [MMV665876] | -39.84

Row | SMILES | PGI (% of DB1127 at 10 uM) [%]
25 | FC(F)(F)c1cccc(Nc2nc(-c3ccccc3)nc3ncccc23)c1 [MMV665798] | 30.38
26 | CCN(CC)CCCNc1ccnc2cc3ccccc3cc12 [MMV665783] | -52.95
27 | CN1CCN(c2ncnc3c2[nH]c2ccc(Cl)cc23)CC1 [MMV396704] | -24.85
28 | Oc1ccc(Br)cc1CN1CCN(Cc2ccc(Cl)cc2)CC1 [MMV665809] | -23.13
29 | Clc1ccc2[nH]c3c(NCCCN4CCOCC4)ncnc3c2c1 [MMV006587] | -6.35
30 | Cc1ccc(F)cc1NC(=O)c1cc(Cl)ccc1Nc1ccccc1 [MMV007275] | 1.44
31 | CCCCc1ccc(NS(=O)(=O)c2cc3c4c(c2)CCN4C(=O)CC3)cc1 [MMV001255] | -110.46
32 | COc1ccc(CN2CCCC(C(=O)c3ccc(C(F)(F)F)cc3)C2)c(O)c1 (centres unmarked) [MMV666060] | -1.92
33 | CN(C)c1ccc(N2C(N)=NC(N)=NC2(C)C)cc1 [MMV667487] | -14.53
34 | COc1ccc(-c2nc(NC(=O)CS(=O)(=O)c3ccc(F)cc3)sc2C)cc1 [MMV665915] | -67.15
35 | O=C(NC1CCN(Cc2ccccc2)CC1)c1cc2nc(-c3ccc(Cl)s3)cc(C(F)(F)F)n2n1 [MMV396635] | -11.44
36 | CC(C)=CCN1CCC(C(=O)Nc2ccc(-c3nc4ccccc4[nH]3)cc2)CC1 [MMV665946] | -26.45
37 | CCOC(=O)c1c(NC(=O)c2ccccc2)sc2c(O)c(CN(CC)CC)ccc12 [MMV665831] | -16.80
38 | CC(NCc1ccccc1)c1cc(Cl)ccc1O (centres unmarked) [MMV665789] | -38.95
39 | COc1ccc(C2c3ccc4ccccc4c3Oc3ncn(CCCn4ccnc4)c(=N)c32)cc1OC (centres unmarked) [MMV667490] | -1.19
40 | Oc1c(CN2CCN(c3ccccc3F)CC2)cc(Br)c2cccnc12 [MMV000760] | -8.56
41 | COc1ccc(CNC(=O)c2cc3c(=O)n4ccccc4nc3n(CCc3ccccc3)c2=N)cc1 [MMV665881] | 6.76
42 | COc1cccc(C(=O)NC(c2ccc(C)cc2)c2cc(Cl)c3cccnc3c2O)c1 (centres unmarked) [MMV665969] | -25.94
43 | CCOC(=O)c1cn(CC)c2cc(N(C)CCc3ccc(OC)c(OC)c3)c(F)cc2c1=O [MMV665977] | -67.06
44 | Cc1cc(NC(=O)c2ccc(-c3ccccc3)cc2)no1 [MMV018984] | 6.32
45 | CC1CCN(Cc2c(O)ccc3cc(-c4nc5ccccc5s4)c(=O)oc23)CC1 [MMV009127] | 0.35
46 | COc1ccccc1N1CCN(C(CNS(=O)(=O)c2ccc(Cl)cc2)c2cccnc2)CC1 (centres unmarked) [MMV665914] | 1.92
47 | CN(N=O)C1=C(NC2CCCCC2)C(=O)c2ccccc2C1=O [MMV667492] | -5.36
48 | O=C(NC1CCCCC1)C(c1cccs1)N(CCc1ccccc1)C(=O)c1ccco1 (centres unmarked) [MMV666106] | 2.06

Row | SMILES | PGI (% of DB1127 at 10 uM) [%]
49 | COc1ccc2c(c1)C1(Nc3ccccc3-c3nc4ccccc4n31)C(=O)N2 (centres unmarked) [MMV396749] | 0.0365
50 | COc1ccc(N2CCN(C(CNC(=O)C3CCCCC3)c3ccc4c(c3)OCO4)CC2)cc1 (centres unmarked) [MMV019662] | -7.72
51 | Cc1ccc(Cl)cc1N1CCN(CCCNC(=O)C2CCN(c3nc4ccccc4[nH]3)CC2)CC1 [MMV019746] | -24.98
52 | CC(C)(C)c1ccc(O)c(CNC2CCCCC2)c1 [MMV665785] | 1.27
53 | CCC1(C)CC(CCNCc2ccccc2O)(c2ccc(C)cc2)CCO1 (centres unmarked) [MMV019406] | -21.13
54 | COc1ccc(-c2cc3c(SCC(=O)Nc4cc(C(F)(F)F)ccc4Cl)nccn3n2)cc1 [MMV396679] | -59.06
55 | COc1cccc(-c2nn(C)c3sc(C(=O)NCCN4CCN(c5ccccc5F)CC4)cc23)c1 [MMV019064] | -17.87
56 | COc1ccccc1CNC(=O)C1c2ccccc2C(=O)N(CC(C)C)C1c1cccs1 (centres unmarked) [MMV000648] | -8.86
57 | Cc1cc(C)cc(Nc2cc(C)nc3nc(C(F)(F)F)nn23)c1 [MMV011259] | -21.18
58 | Br.CCn1c2c(c(=N)c3c1CCC3)CCCC2 [MMV000340] | 2.86
59 | COc1ccc(C(=O)C(CCC(CNC(C)(C)C)C(=O)c2ccc(OC)cc2)CNC(C)(C)C)cc1 (centres unmarked) [MMV007591] | -0.71
60 | Cc1ccc(N2C(=O)C3C(C2=O)C2(c4ccccc4)C(=O)C3(c3ccccc3)C(c3ccccc3)=C2c2ccccc2)cc1 (centres unmarked) [MMV666062] | -37.70
61 | COc1ccc(Nc2cc(C)nc(NCc3ccccc3)n2)cc1 [MMV006825] | 17.48
62 | CCOc1c(Cl)cc(CNCC(O)c2ccccc2)cc1OC (centres unmarked) [MMV396632] | 5.30
63 | CC1CN(C(=O)c2sc3ccccc3c2Cl)CC(C)O1 (centres unmarked) [MMV020492] | -44.30
64 | CCOC(=O)C1=C(C)N=c2sc(=Cc3ccccc3O)c(=O)n2C1c1ccc(OC)c2ccccc12 (centres unmarked) [MMV666604] | -9.67
65 | Cc1ccc(CSCc2ccc(C(=O)NC3CC3)o2)cc1 [MMV007571] | -9.42
66 | Oc1ccccc1CN1CCC2(CCCN(Cc3ccccc3F)C2)C1 (centres unmarked) [MMV666116] | -7.59
67 | CCN(CC)CCNc1ncnc2c1[nH]c1ccc(Cl)cc12 [MMV396703] | -47.33
68 | CCCCCCOC(=O)C1=C(C)NC(=O)NC1c1ccccc1F (centres unmarked) [MMV007686] | -24.58
69 | O=C(O)C1Cc2c([nH]c3ccccc23)C(c2ccc(Cl)cc2Cl)N1 (centres unmarked) [MMV008138] | -14.05
70 | C=C(C)CCC(C)N1CCC(N2CCC(C(=O)NCCc3ccccc3)CC2)CC1 (centres unmarked) [MMV666110] | -25.44
71 | O=C(Nc1ccc(N2CCN(Cc3ccccc3)CC2)cc1)c1cccs1.O=C(O)C(F)(F)F [MMV019670] | -9.43
